Patent US20140227318A1, “SLEEP QUALITY IMPROVING AGENT” (LION CORPORATION, priority 2011, published 2014)

Legend:
[1] = tested on: male C57BL/6 mice; experiment: Measurement of amount of activity of mice (sleep inducing effect); assay type: in vivo, mouse; details: oral; for CUMULATIVE AMOUNT OF ACTIVITY 6 HOURS AFTER ADMINISTRATION: n=8; for sleep inducing effect: conclusion from amount of activity
Experimental: To check the sleep inducing effect of the S-adenosylmethionine-containing yeast, the following test was performed using respective samples shown in TABLE 1.
The S-adenosylmethionine-containing yeast (the sample in Example 1) used was “AMee (trade name)” manufactured by IWATA CHEMICAL CO., LTD. “Nissin Super Camellia dry yeast (trade name)” manufactured by Nisshin Foods Inc. was used as a yeast containing no adenosylmethionine (the sample in Comparative Example 2). S-adenosylmethionine disulfate tosylate (the sample in Comparative Example 3) used was S-adenosylmethionine disulfate tosylate manufactured by CHEMaster. The sample in Comparative Example 2 and the sample in Comparative Example 3 were mixed and used as a mixture of the yeast containing no S-adenosylmethionine and S-adenosylmethionine disulfate tosylate (the sample in Comparative Example 4). S-adenosylmethionine chloride used in Comparative Example 5 (the sample in Comparative Example 5) was a reagent from
SIGMA. In each of Example 1 and Comparative Examples 2, 3, 4, and 5, a suspension of the sample in a 0.5% by mass aqueous methyl cellulose solution was prepared and used as a sample solution for an experiment. A 0.5% by mass aqueous methyl cellulose solution (the sample in Comparative Example 1) was used as a control solution.
When a sample has the function of inducing sleep, the amount of activity always decreases after administration of the sample. Therefore, the sleep inducing effect of each sample was evaluated by determining whether or not the administration of the sample solution to a mouse caused a reduction in the amount of activity.
8-Week old or 9-week old male C57BL/6 mice were purchased from Japan SLC, Inc. and acclimatized for 3 to 6 days. The amount of activity during acclimatization was used to divide the mice into administration groups. Immediately before the onset of the dark period, a sample solution or the control solution was orally administered in an amount of 10 mL/kg per body weight, and the amount of activity was measured for 24 hours after administration. Each administration group included 8 mice (n=8).
The amount of activity was measured under the following conditions. The mice were raised in individual cages, and an infrared camera was disposed above each cage. The imaging range of the infrared camera was divided into 64 sections, and the number of occurrences that the mouse crossed a section was measured. The number of occurrences was collected every 30 minutes.
In FIG. 2, “**” represents that a significant difference was found at p<0.01.

[2] = intravenous injection or intramuscular injection; cited from earlier work

Compound | CUMULATIVE AMOUNT OF ACTIVITY 6 HOURS AFTER ADMINISTRATION ([1]; 150 mg/kg (137 mg/kg in terms of S-adenosylmethionine)) | sleep inducing effect [1] | CUMULATIVE AMOUNT OF ACTIVITY 6 HOURS AFTER ADMINISTRATION ([1]; 293 mg/kg (150 mg/kg in terms of S-adenosylmethionine)) | influence on sleep onset latency [2] | length of NREM sleep (stage 4) [2]
C[S+](CC[C@H](N)C(=O)O)C[C@H]1O[C@@H](n2cnc3c(N)ncnc32)[C@H](O)[C@@H]1O.[Cl-] (stereo partly drawn) [Comparative Example 5, S-adenosylmethionine chloride] | 7068 NUMBER OF OCCURRENCES/6 HOURS | no sleep inducing effect |  |  | 
S-adenosylmethionine disulfate tosylate [Comparative Example 3] |  | no sleep inducing effect | 8618 NUMBER OF OCCURRENCES/6 HOURS | no influence | extended
